For 36 compounds, TGI results are on record in PubChem BioAssay (NCI).

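Following 48 hours of exposure in 96-well plates, responses at five concentrations were used to interpolate endpoints linearly. Definition used: TGI = concentration required for complete inhibition of growth.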 Bounds are passed on as bounds.

The term TGI denotes the concentration at which net growth stops.

The test system of this assay is OVCAR-5 ovarian. Nature of the assay: DTP human tumour cell line panel, 48 h.
The compound `CCN(CC)P1(=S)Oc2ccc3ccccc3c2-c2c(ccc3ccccc23)O1` came in with a concentration for total growth inhibition (TGI) of over 100 µM.

As to `COc1ccc(OC)c2c1C[C@@H]1C(C#N)N3[C@H](Cc4c(OC)ccc(OC)c4[C@@H]3C)C(=O)N1[C@H]2C` (stereo partly specified), the TGI stood at 23.7 µM.

As for `Brc1ccc(-c2ccc(-c3ccc(Br)s3)s2)s1`, the TGI was over 100 µM.

`C[N+](C)(C)CCCCCc1c2nc(c(CCCCC[N+](C)(C)C)c3ccc([nH]3)c(CCCCC[N+](C)(C)C)c3ccc([nH]3)c(CCCCC[N+](C)(C)C)c3nc1C=C3)C=C2` registered a TGI of over 100 µM.

As for `C#CCNC(Cc1ccccc1)C(=O)O` (stereo unspecified), the total growth inhibition concentration (TGI) is over 100 µM.

Take `CC1CCN(c2nnc(Cl)cc2C(=O)c2ccccc2)CC1`: the concentration for total growth inhibition (TGI) is over 100 µM.

The compound `O=C(/C=C1\N=C(c2ccccc2)N(c2ccc3c(c2)Sc2cc(N4C(=O)/C(=C/C(=O)/C=C/c5ccccc5)N=C4c4ccccc4)ccc2N3)C1=O)/C=C/c1ccccc1` showed a TGI of 48.8 µM.

With `CCCCc1cc2c(cc1O)CCC1C2CC[C@@]2(C)C1CC[C@@H]2O` (stereo partly specified), the total growth inhibition concentration (TGI) was determined as 36.5 µM.

The compound `COc1ccc(N=NN2CCCC2)cc1` gave a TGI of over 100 µM.

Regarding `CC(C)(C)NCC(O)COc1cccc2[nH]c(C#N)cc12` (stereo unspecified), the TGI was over 100 µM.

Consider `COc1cccc(-n2nnc3c(N)nc(N)nc32)c1`, for which the TGI is over 100 µM.

For the compound `CCOC(=O)c1ccc(N=C/C=C(\Nc2ccc(C(=O)OCC)cc2)c2ccc3ccccc3c2)cc1`, the TGI was over 100 µM.

On to `CCCCCCc1cc(C=O)sc1-c1ccc(-c2sc(-c3ccc(-c4ccc(-c5cc(CCCCCC)c(-c6ccc(-c7sc(C=O)cc7CCCCCC)s6)s5)s4)s3)cc2CCCCCC)s1`, for which the concentration for total growth inhibition (TGI) was over 100 µM.

With `O=C(O)CCCN1CCCCC1`, the TGI was over 100 µM.

`COC(=O)c1ccc(/C=C/C2=CC(=O)C=CC2=O)cc1` gave a TGI of 46 µM.

On to `COc1ccc2c(c1)CCC(CN1CCN(CCOC(c3ccc(F)cc3)c3ccc(F)cc3)CC1)=C2`, for which the TGI stood at 97.4 µM.

With `NS(=O)(=O)c1ccc(CNC(=S)NC(=O)Nc2ccc(Cl)c(Cl)c2)cc1`, the TGI was over 100 µM.

In turn, `CC(C)(C)c1cc(C2COC(=O)COCCOCC(=O)OCCOCCO2)cc(C(C)(C)C)c1O` (stereo unspecified) gave a TGI of 54.8 µM.

Consider `COCOc1cc(OC)ccc1C=O`, for which the TGI was over 100 µM.

In turn, `COc1ccc(N(C(=O)OC(C)(C)C)[C@@H]2C(C)=C[C@H]([S@@](=O)c3ccc(C)cc3)[C@@H]3C(=O)N(C)C(=O)[C@@H]32)cc1` showed a TGI of 43.1 µM.

With `CC1OC(OC2C(CO)OC(O[C@H]3CC[C@@]4(C)C(=CC[C@H]5[C@@H]6C[C@@H]7O[C@](O)(CC[C@@H](C)COC8OC(CO)C(O)C(O)C8O)[C@@H](C)[C@@H]7[C@@]6(C)CC[C@@H]54)C3)C(OC3OC(C)C(O)C(O)C3O)C2O)C(O)C(O)C1O` (stereo partly specified), the TGI came to 6.76 µM.

Consider `CCOC(=O)Cc1csc(/N=C\c2c(O)c3ccccc3oc2=O)n1`, for which the total growth inhibition concentration (TGI) was over 100 µM.

In turn, `O=[N+]([O-])c1ccccc1S(=O)(=O)N1CCCc2cc(Cl)ccc21` showed a TGI of over 100 µM.

In turn, `Fc1ccc(C(=NCc2ccccc2)N2CCOCC2)cc1` showed a total growth inhibition concentration (TGI) of over 100 µM.

`COC(=O)CCCc1ccc2c(c1)CCC2` came in with a TGI of over 100 µM.

With `CCOC(=O)/C(O)=C(\C=N\C(=S)Nc1ccc(Cl)c(Cl)c1)C(=O)OCC`, the TGI is over 100 µM.

As to `O=c1[nH]c2ccc(CC(=S)N3CCN(c4ccccc4)CC3)cc2s1`, the concentration for total growth inhibition (TGI) worked out at 84.5 µM.

For the compound `Cc1nn(-c2ccccc2)c(C)c1/C=N/NC(=O)c1sc(=S)n(-c2ccc(Cl)cc2)c1N`, the total growth inhibition concentration (TGI) is over 100 µM.

As to `COc1ccc(NS(=O)C2CCCCC2)cc1` (stereo unspecified), the total growth inhibition concentration (TGI) is over 100 µM.

Compound `COc1ccccc1NC(=S)N/N=C(/c1ccccc1)c1ccccn1` showed a TGI of 13.2 µM.

Compound `COc1cc(O)c(C(=O)/C=C/c2ccc(O)cc2)cc1Oc1ccc(C(=O)/C=C/c2ccc(O)cc2)c(O)c1` came in with a concentration for total growth inhibition (TGI) of 5.6 µM.

As to `CC(C)(C)[Si](C)(C)OCC1OC(n2ccc(=O)[nH]c2=O)C(O[Si](C)(C)C(C)(C)C)/C1=N/O` (stereo unspecified), the TGI turned out to be 18.6 µM.

The compound `CC1(C)COC(c2cccc(C3=NC(C)(C)CO3)c2)=N1` gave a TGI of over 100 µM.

`CCC(C#N)N(Cc1cccc(CN(C(C)=O)C(C#N)CC)c1)C(C)=O` (stereo unspecified) returned a TGI of over 100 µM.

In turn, `CCOC(=O)c1c(OCC)[nH]c(=O)c(C(c2ccc(F)cc2)c2c(O)c(C(=O)OCC)c(OCC)[nH]c2=O)c1O` gave a TGI of over 100 µM.

In turn, `CCC1OC2C(CC=C(C)C)=C3OC(C)(O)C(C)(CC)C(O)C3=C3OC(=O)C=C1C32` (stereo unspecified) returned a concentration for total growth inhibition (TGI) of over 100 µM.
